These results are taken from PMC4114533, “Synthesis, Anti-tubulin and Antiproliferative SAR of Steroidomimetic Dihydroisoquinolinones” (Chemmedchem, 2014).

The subject of assay [1] is DU-145 human prostate cancer cells. Description: Antiproliferative assay (WST-1, 96 h), DU-145. The format is cell-based. The following applies: for GI50: Homo sapiens, DU-145 cells, 96 h, WST-1, mean of three determinations; for antiproliferative activity (in words): in vitro antiproliferative activity, result in words. How it is done:
(§1) Cell lines: DU-145 (brain metastasis carcinoma of the prostate) and MDA MB-231 (metastatic pleural effusion of breast adenocarcinoma) established human cell lines were obtained from ATCC Global Bioresource Center. Cells were maintained in a 5 % CO2 humidified atmosphere at 37 °C in RPMI-1640 medium, supplemented with 10 % fetal bovine serum, penicillin, (100 U mL^−1), and streptomycin (0.1 mg mL^−1). The effect of drugs on tubule formation was assessed using an angiogenesis kit (TCS-Cellworks).
(§2) Antiproliferative assays: DU-145 and MDA MB-231 cells were seeded into 96-well microtitre plates (5000 cells per well) and treated with compound (10^−9–10^−4 M) or with vehicle control. At 96 h post-treatment, live cell counts were determined by WST-1 cell proliferation assay (Roche, Penzberg, Germany), as per the manufacturer’s instructions. Viability results were expressed as a percentage of mean control values resulting in the calculation of the 50 % growth inhibition (GI50). All experiments were performed in triplicate.

Assay [2] relates to MDA MB-231 human breast cancer cells. Description: Antiproliferative assay (WST-1, 96 h), MDA MB-231. The format is cell-based. The following applies: MDA MB-231 cells, WST-1, mean of three determinations. How it is done:
as §1, §2
For orientation: Formazan colour is commonly taken as a measure of viable cells.

Usually GI50 stands for the concentration that inhibits growth by half. A higher GI50 goes with lower sensitivity of the cells. Turning to `COc1cc(CN2CCc3cc(OCc4ccccc4)c(OC)cc3C2=O)cc(OC)c1` [7 d, 6-Benzyloxy-7-methoxy-2-(3,5-dimethoxybenzyl)-3,4-dihydroisoquinolin-1(2H)-one], the GI50 in assay [1] is over 100 µM.
In the case of `COc1cc2c(cc1OCc1ccccc1)CCN(S(=O)(=O)c1ccccc1OC)C2=O` [10 a, 6-Benzyloxy-7-methoxy-2-((2-methoxyphenyl)sulfonyl)-3,4-dihydroisoquinolin-1(2H)-one], the GI50 in assay [1] and in assay [2] was over 100 µM in each case.
In assay [1], `COc1cc2c(cc1O)CCN(Cc1ccccc1OC)C2=O` [8 a, 6-Hydroxy-7-methoxy-2-(2-methoxybenzyl)-3,4-dihydroisoquinolin-1(2H)-one] registered a GI50 of over 100 µM.
The compound `COc1cc(OC)cc(C(=O)N2CCc3cc(OCc4ccccc4)c(OC)cc3C2)c1` [14 f, 6-Benzyloxy-2-(3,5-dimethoxybenzoyl)-7-methoxy-1,2,3,4-tetra-hydroisoquinoline] displayed a GI50 in assay [1] of 46.8 µM.
For `COc1cc(OC)cc(C(=O)N2CCc3cc(O)c(OC)cc3C2)c1` [18 b, 2-(3,5-Dimethoxybenzoyl)-6-hydroxy-7-methoxy-1,2,3,4-tetrahydroisoquinoline], it took 6.4 µM to inhibit growth in assay [1] by half (GI50).
In the case of `COc1cc2c(cc1O)CCN(C(=O)c1cccc(C#N)c1)C2=O` [16 c, 2-(3-Cyanobenzoyl)-6-hydroxy-7-methoxy-3,4-dihydroisoquinolin-1(2H)-one], the 50% growth inhibitory concentration (GI50) in assay [1] was 70 µM; in assay [2], 37.4 µM.
For the compound `COc1ccc(C(=O)N2CCc3cc(O)c(OC)cc3C2=O)cc1` [16 d, 6-Hydroxy-2-(4-methoxybenzoyl)-7-methoxy-3,4-dihydroisoquinolin-1(2H)-one], in assay [1], the GI50 was over 100 µM and the “antiproliferative activity (in words)” value is “inactive”.
As to `COc1cc2c(cc1O)CCN(C(=O)c1ccc(OC)c(OC)c1)C2` [18 a, 2-(3,4-Dimethoxybenzoyl)-6-hydroxy-7-methoxy-1,2,3,4-tetrahydroisoquinoline], in assay [1], the GI50 was over 100 µM and the “antiproliferative activity (in words)” value was “completely inactive”.
`COc1ccc(C(=O)N2CCc3cc(OCc4ccccc4)c(OC)cc3C2=O)cc1` [15 d, 6-Benzyloxy-2-(4-methoxybenzoyl)-7-methoxy-3,4-dihydroisoquinolin-1(2H)-one] came in with a GI50 in assay [1] of over 100 µM.
Compound `COc1ccc(C(=O)N2CCc3cc(OCc4ccccc4)c(OC)cc3C2=O)cc1OC` [15 e, 6-Benzyloxy-2-(3,4-dimethoxybenzoyl)-7-methoxy-3,4-dihydroisoquinolin-1(2H)-one] yielded a GI50 in assay [1] of over 100 µM.
On to `COc1cc2c(cc1O)CCN(C(=O)c1ccccc1OC)C2=O` [16 a, 6-Hydroxy-2-(2-methoxybenzoyl)-7-methoxy-3,4-dihydroisoquinolin-1(2H)-one], for which the 50% growth inhibitory concentration (GI50) in assay [1] was determined as 6.42 µM; in assay [2], 5.6 µM.
Turning to `COc1cc2c(cc1OCc1ccccc1)CCN(C(=O)c1cc(OC)c(OC)c(OC)c1)C2=O` [15 g, 6-Benzyloxy-7-methoxy-2-(3,4,5-trimethoxybenzoyl)-3,4-dihydroisoquinolin-1(2H)-one], the results for the GI50 in assay [1] and in assay [2] were over 100 µM and 77.5 µM, respectively.
In the same order, the values of `COc1cc2c(cc1OCc1ccccc1)CCN(S(=O)(=O)c1cccc(Cl)c1)C2=O` [10 d, 6-Benzyloxy-7-methoxy-2-((3-chlorophenyl)sulfonyl)-3,4-dihydroisoquinolin-1(2H)-one] are over 100 µM and over 100 µM.
In the case of `COc1cccc(C(=O)N2CCc3cc(O)c(OC)cc3C2=O)c1` [16 b, 6-Hydroxy-2-(3-methoxybenzoyl)-7-methoxy-3,4-dihydroisoquinolin-1(2H)-one], the GI50 in assay [1] was determined as 3.63 µM; in assay [2], 1.89 µM.
`COc1cc2c(cc1OCc1ccccc1)CCN(Cc1cc(OC)c(OC)c(OC)c1)C2=O` [7 e, 6-Benzyloxy-7-methoxy-2-(3,4,5-trimethoxybenzyl)-3,4-dihydroisoquinolin-1(2H)-one] had a GI50 in assay [1] of over 100 µM.
For the compound `COc1cccc(S(=O)(=O)N2CCc3cc(OCc4ccccc4)c(OC)cc3C2=O)c1` [10 b, 6-Benzyloxy-7-methoxy-2-((3-methoxyphenyl)sulfonyl)-3,4-dihydroisoquinolin-1(2H)-one], the GI50 in assay [1] and in assay [2] was over 100 µM throughout.
Turning to `COc1ccc(C(=O)N2CCc3cc(OS(N)(=O)=O)c(OC)cc3C2)cc1OC` [19 a, 2-(3,4-Dimethoxybenzoyl)-7-methoxy-6-sulfamoyloxy-1,2,3,4-tetrahydroisoquinoline], in assay [1], the GI50 was over 100 µM and the “antiproliferative activity (in words)” value is “completely inactive”.
In assay [1], `COc1ccc(C(=O)N2CCc3cc(OCc4ccccc4)c(OC)cc3C2)cc1OC` [14 e, 6-Benzyloxy-2-(3,4-dimethoxybenzoyl)-7-methoxy-1,2,3,4-tetra-hydroisoquinoline] returned a GI50 of 26.7 µM. That is a double-digit micromolar value.
`COc1cc(OC)cc(C(=O)N2CCc3cc(OCc4ccccc4)c(OC)cc3C2=O)c1` [15 f, 6-Benzyloxy-2-(3,5-dimethoxybenzoyl)-7-methoxy-3,4-dihydroisoquinolin-1(2H)-one] displayed a GI50 in assay [1] of over 100 µM.
As to `COc1cc2c(cc1OCc1ccccc1)CCN(C(=O)c1ccccc1OC)C2=O` [15 a, 6-Benzyloxy-2-(2-methoxybenzoyl)-7-methoxy-3,4-dihydroisoquinolin-1(2H)-one], the results for the GI50 in assay [1] and in assay [2] were over 100 µM and 43.6 µM, respectively.
For `COc1ccc(C(=O)N2CCc3cc(OS(N)(=O)=O)c(OC)cc3C2=O)cc1OC` [17 e, 2-(3,4-Dimethoxybenzoyl)-7-methoxy-6-sulfamoyloxy-3,4-dihydroisoquinolin-1(2H)-one], the 50% growth inhibitory concentration (GI50) in assay [1] is 3.4 µM; in assay [2], 2.08 µM.
Compound `COc1cc2c(cc1OS(N)(=O)=O)CCN(Cc1cc(OC)c(OC)c(OC)c1)C2=O` [9 e, 7-Methoxy-6-sulfamoyloxy-2-(3,4,5-trimethoxybenzyl)-3,4-dihydroisoquinolin-1(2H)-one] registered a GI50 in assay [1] of over 100 µM.
`COc1cc(CN2CCc3cc(O)c(OC)cc3C2=O)cc(OC)c1` [8 d, 6-Hydroxy-7-methoxy-2-(3,5-dimethoxybenzyl)-3,4-dihydroisoquinolin-1(2H)-one] showed a GI50 in assay [1] of over 100 µM.
`COc1ccc(CN2CCc3cc(OS(N)(=O)=O)c(OC)cc3C2=O)cc1` [9 c, 7-Methoxy-2-(4-methoxybenzyl)-6-sulfamoyloxy-3,4-dihydroisoquinolin-1(2H)-one] came in with a GI50 in assay [1] of over 100 µM.
On the same count and under the same terms, to `COc1ccccc1CN1CCc2cc(OS(N)(=O)=O)c(OC)cc2C1=O` [9 a, 7-Methoxy-2-(2-methoxybenzyl)-6-sulfamoyloxy-3,4-dihydroisoquinolin-1(2H)-one] belongs over 100 µM; to `COc1cc(CN2CCc3cc(OS(N)(=O)=O)c(OC)cc3C2=O)cc(OC)c1` [9 d, 7-Methoxy-2-(3,5-dimethoxybenzyl)-6-sulfamoyloxy-3,4-dihydroisoquinolin-1(2H)-one], over 100 µM.
In the case of `COc1cc(OC)cc(C(=O)N2CCc3cc(OS(N)(=O)=O)c(OC)cc3C2)c1` [19 b, 2-(3,5-Dimethoxybenzoyl)-7-methoxy-6-sulfamoyloxy-1,2,3,4-tetrahydroisoquinoline], in assay [1], growth was halved (GI50) at 9 µM.
Consider `COc1cc2c(cc1O)CCN(Cc1cc(OC)c(OC)c(OC)c1)C2=O` [8 e, 6-Hydroxy-7-methoxy-2-(3,4,5-trimethoxybenzyl)-3,4-dihydroisoquinolin-1(2H)-one], for which the GI50 in assay [1] was over 100 µM.
